# Tests used:
# human LDH-A (hLDH-A) [1] = biological target: T1, human LDH-A (hLDH-A) (Homo sapiens, UniProt P00338); test: recombinant enzyme assay, NADH oxidation at […] nm; assay type: biochemical
# T1 construct: gene LDHA; recombinant full length human LDHA (amino acids 1–332) with N terminal His tag
# human LDH-A (hLDH-A) [2] = biological target: T1, human LDH-A (hLDH-A); test: recombinant enzyme assay, NADH oxidation at […] nm; velocity at varied NADH ±[…] PGG; assay type: biochemical
IC50 (human LDH-A (hLDH-A) [1]),IC50 (human LDH-A (hLDH-A) [2]),SMILES
> 6000 µM,,O=C(O)C(=O)O [oxalic acid]
,0.0272 µM,"O=C(OC[C@H]1O[C@@H](OC(=O)c2cc(O)c(O)c(O)c2)[C@H](OC(=O)c2cc(O)c(O)c(O)c2)[C@@H](OC(=O)c2cc(O)c(O)c(O)c2)[C@@H]1OC(=O)c1cc(O)c(O)c(O)c1)c1cc(O)c(O)c(O)c1 [PGG, penta-1,2,3,4,6-O-galloyl-β-D-glucose]"

# From paper PMC4396556, “1,2,3,4,6-Penta-O-galloylglucose within Galla Chinensis Inhibits Human LDH-A and Attenuates Cell Proliferation in MDA-MB-231 Breast Cancer Cells” (Evidence-based Complementary and Alternative Medicine : eCAM, 2015)
